Here are results for one substance from patent publication US11446253B2, “Ionic liquids for internal delivery” (priority 2017, dated 2022).

Where “and” joins values, the source holds several entries; their conditions need not be identical. Equal values may be shown once.

One data set deals with Caco-2 cells. Description: Tight junction integrity (TEER) in Caco-2 cells. In kind it is cell-based, human. The note with it: FITC-insulin with 10 mM CAGE or saline, 5 h. The protocol: […] Furthermore, TEER was measured at every time point when aliquots were withdrawn from the transwells and plotted as % change from initial value vs time.
TEER values were recorded for each insert. […] TEER was plotted as % change from initial value vs time.

A further data set deals with Caco-2 monolayers. Kind of data set: FITC-insulin transport across Caco-2 monolayers. Type of data set: cell-based, human. The settings on record: Caco-2 monolayers, end of study at 5 h, 10 mM CAGE or saline. The protocol:
TEER was measured on a regular basis and when it reached above 200 ohms·cm^2, indicating sufficient tight junction integrity between cells, transport study was performed.
After the end of study at 5 h, the FITC-insulin concentration in the aliquots were measured using a plate reader (Tecan, Infinite M1000, Mannedorf, Switzerland) at 495/520 nm excitation/emission wavelengths and plotted as % FITC-insulin transport vs time. Furthermore, TEER was measured at every time point when aliquots were withdrawn from the transwells and plotted as % change from initial value vs time.
TEER was measured on a regular basis and when it reached above 200 ohms. cm2, indicating sufficient tight junction integrity between cells, transport study was performed.
After the end of study at 5 h, the FITC-insulin concentration in the aliquots were measured using a plate reader (Tecan, Infinite M1000, Mannedorf, Switzerland) at 495/520 nm excitation/emission wavelengths and plotted as % FITC-insulin transport vs time. Furthermore, TEER was measured at every time point when aliquots were withdrawn from the transwells and plotted as […].

The subject of data set [1] is non-diabetic male Wistar rats. Kind of data set: In vivo bioactivity of insulin isolated from CAGE after storage. Set-up: species or system rat. The settings on record: fresh, 1 U/kg subcutaneous, listed as Freshly prepared insulin solution. The text has this: Prior to insulin injections, rats were fasted overnight but given free access to water and fasting continued throughout the study to eliminate variability in blood glucose due to food consumption. The results were plotted as % change in blood glucose compared to initial level vs time.

Another data set deals with T1, bovine trypsin (Bos taurus, UniProt P00760).
T1 construct: purchased MP Biomedicals (Santa Ana, Calif., USA)
T1 sequence (P00760 24-246): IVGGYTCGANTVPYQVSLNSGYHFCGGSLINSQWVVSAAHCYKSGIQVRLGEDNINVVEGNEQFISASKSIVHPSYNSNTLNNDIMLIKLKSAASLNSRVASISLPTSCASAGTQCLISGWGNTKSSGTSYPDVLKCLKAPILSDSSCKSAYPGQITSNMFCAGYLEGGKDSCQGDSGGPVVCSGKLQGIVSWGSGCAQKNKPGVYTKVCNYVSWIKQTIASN
Description: Trypsin-mediated degradation of insulin (LC-MS). Type of data set: biochemical. The note with it: incubated with trypsin, 37° C., 24 h. The protocol:
Immediately after vortex (time=0 h; t0) and at predetermined time intervals, 0.1 mL of the insulin-trypsin mixture was aliquoted, and the enzyme activity was inhibited by the addition of 0.1 mL of ice-cold 0.1% trifluoroacetic acid/acetonitrile solution (69:31, v/v). The samples were analyzed by liquid chromatography-mass spectrometry (LC-MS) to determine the amount of intact insulin in the solution at different times. An Agilent 1290/6140 Ultra High Performance Liquid Chromatography/Mass Spectrometer consisting of a 1290 Infinity LC™ binary pump, thermostat column compartment, 1290 Infinity autosampler, an Agilent 1290 diode array detector and an Agilent 6140 quadrupole MSD system was used for the analyses. For an analysis, 3 μL of the samples were injected into an Agilent 300SB-C18 2.1×75 mm, 5 μm, maintained at 25° C. and eluted with a mobile phase consisting of a gradient mixture of deionized water with 0.1% formic acid (FA) (A) and acetonitrile (B) with 0.1% FA. A gradient of 95-5% (0 min), 0-100% (10 min), 0-100% (15 min), 95-5% (15.1 min), 95-5% (18 min) A:B was used for each run. […] All experiments were conducted in triplicate and are reported are mean±standard deviation.

Data set [2] has as its system non-diabetic male Wistar rats. Kind of data set: Blood glucose lowering after intrajejunal administration. In kind it is in vivo, rat.
Description: Before the start of the study, the rats were anesthetized, abdominal hair clipped and the area prepped for surgery using 70% ethanol and betadine. An incision was made in the abdomen to expose the intestine. […] Each formulation was tested in 6 rats with the exception of saline which was tested in only 3 rats. Thereafter, intestinal section was placed back into the abdomen and the muscle and skin sutured. Blood glucose was determined using a commercial glucose meter in the beginning and at every 0.5 h till the end of study at 5 h. The animals remained anesthetized throughout the study, at the end of which they were euthanized and the intestinal section around the injection site was removed for further histological examination to determine toxicity, if any. […] The results were plotted as % change in blood glucose levels with respect to initial reading at t=0 vs time.
Before the start of the study, the rats were anesthetized, abdominal hair clipped, and the surgery area was prepped using 70% ethanol and betadine. An incision was made in the abdomen to expose the intestine. […] The time zero blood glucose was taken after the intestine was exposed i.e. immediately prior to the injections. Each formulation was tested in 6 rats with the exception of saline which was tested in only 3 rats. Thereafter, intestinal section was placed back into the abdomen and the muscle and skin sutured. Blood glucose was determined using a commercial glucose meter at the beginning and at every 0.5 h till the end of study at 5 h. Loss in body temperature in the animals during anesthesia was prevented by placing the animals on temperature controlled warming pads prior to surgery followed by additional towel cover after surgery. The animals remained anesthetized throughout the study and were euthanized after 5 h. At the end of study at 5 h, the intestinal section around the injection site was removed for further histological examination to determine toxicity, if any. […] The results were plotted as % change in blood glucose levels with respect to initial reading vs time. In addition, the saline group was considered as fasting control and graphs were plotted after subtracting blood glucose levels of the saline group.
For data set [3] the following is noted: stored at 4° C.; cited from earlier work.
The nature of data set [4]: Serum insulin pharmacokinetics (human insulin ELISA). The note with it: for AUCtotal: insulin-CAGE 5 U/kg intrajejunal, insulin 2 U/kg subcutaneous. The procedure:
Standard protocol was followed for separation of serum from whole blood. Briefly, the blood samples were left undisturbed at RT for 15-30 minutes to allow clot formation, followed by centrifugation at 2,000 g for 10 minutes.
Fasting prior to anti-diabetic efficacy studies is routinely done (29, 62, 63). It helps avoid fluctuations in the blood glucose levels as a result of eating, which can vary between animals based on the amount and time of food intake. All animal experiments were performed in accordance with the University of California Santa Barbara animal care committee guidelines and to the Guide for the Care and Use of Animals of the Institute of Laboratory Animal Resources, National Research Council. […] The time zero blood glucose was taken after the intestine was exposed i.e. immediately prior to the injections. […] Loss in body temperature in the animals during anesthesia was prevented by placing the animals on temperature controlled warming pads prior to surgery followed by additional towel cover after surgery. The animals remained anesthetized throughout the study and were euthanized after 5 h. […] In addition, the saline group was considered as fasting control and graphs were plotted after subtracting blood glucose levels of the saline group. […] Standard protocol was followed for separation of serum from whole blood. Briefly, blood samples were left undisturbed at RT for 15-30 minutes to clot, followed by centrifugation at 2,000 g for 10 minutes. […] Pharmacodynamic bioavailability was calculated using AUC obtained from efficacy plots.
(An ELISA detects its analyte on a solid surface through an enzyme-linked reagent.)

The test system of the next data set is Non-diabetic Wistar rats. Description: Consecutive oral dosing of neat CAGE capsule and insulin capsule. In kind it is in vivo, rat. The settings on record: 10 U/kg insulin oral, 10 h. The procedure:
Non-diabetic Wistar rats were fasted overnight for 8 h but given access to water ad libitum. […] The blood glucose for time 0 was evaluated at this point. […] Fasting was continued with free access to water till the end of study at 12 h and blood glucose was evaluated at various time points. The results were plotted as % change in blood glucose compared to initial level vs time.

For data set [5], the system named is non-diabetic male Wistar rats. Description: Blood glucose lowering after oral administration in enterically coated capsules. Type of data set: in vivo, rat. The procedure: (§1) For the oral efficacy study, adult non-diabetic male Wistar rats were fasted overnight but given free access to water. On the next day, the capsules were administered to the rats using an oral gavage followed by subcutaneous administration of 5 mg/kg metoclopramide HCl to promote gastric emptying. Blood glucose was thereafter measured using a commercial glucose meter and subsequently every hour till 12 h. Rats were fasted throughout the period of study. […] In addition, the efficacy of subcutaneously injected 2 U/kg insulin-saline was also evaluated. […] The results were plotted as percent change in blood glucose level vs time.
as §1, with “To determine the efficacy of insulin-CAGE administered through the oral route, elongated size 9 capsules were used. […] Following this, the capsules were enterically coated three times with 12.5% w/v Eudragit® L-100 dissolved in isopropanol. For” for “For”, “Next” for “On the next”, “was” for “was also”, “time. […] After 12 h of study, rats were euthanized, and small intestinal sections were collected for tissue histology.” for “time.”

As for “insulin: human insulin (Sigma-Aldrich) in saline or buffer, comparator”, the “TEER, % of initial value” in the data set on Caco-2 cells amounted to 98.5±2.64%. Further, the FITC-insulin transport in the data set with Caco-2 monolayers turned out to be 10%. Also, the “blood glucose, % of initial level” value was 50.73±2.47% and 51±2% in data set [1] (1 h); 49.59±4.4% and 50±4% in data set [1] (2 h); 48.76±7.55% and 49±8% in data set [2] (2 U/kg subcutaneous, 1 h); 101.61±6.69% and 101±7% in [2] (2 U/kg subcutaneous, 5 h); 51.43±5.25% and 51±5% in data set [5] (2 U/kg subcutaneous, 1 h). The “drop in blood glucose” value is 50% and 49% in [1] (1 h); 50% and 49% in data set [5] (2 U/kg subcutaneous, 1 h). In [1] (5 h), the “blood glucose, % of original level” value was 92.05±4.8% and 92±5%. The substance also had an intact insulin remaining with bovine trypsin of 5±0.4%. Besides, the “maximum drop in blood glucose” value in data set [2] (2 U/kg subcutaneous, 1 h) came to 51%. In addition, the “decrease in blood glucose of control groups, % of initial level” value in [2] (intrajejunal controls (neat CAGE, 3 U/kg insulin-saline), 5 h) is reported as “about 25%”. Also, the “stability at 4° C.” value in data set [3] is 2 to 7 days. Besides, the serum insulin concentration entry in data set [4] (3 U/kg intrajejunal) was “hardly increased”. In data set [4] (5 U/kg intrajejunal), the “serum insulin level with time” value was “did not show any increase”. The figures for the AUCtotal in data set [4] (Table 1) and in [4] (Table 2) were 237.6 μIU · h/ml and 237.6 μIU · h/mL, respectively. Further, the blood glucose drop entry in the data set on Non-diabetic Wistar rats is given as “around 34%”. Moreover, the “blood glucose, % of initial levels” value in the data set with Non-diabetic Wistar rats amounted to 66.9±7.1%. For the same substance, the “decrease in blood glucose of formulation controls” value in data set [5] (oral controls, 12 h) is given as “about 25%”.
